Test results published in ChEMBL document CHEMBL4308865, “Discovery of 4-alkoxy-6-methylpicolinamide negative allosteric modulators of metabotropic glutamate receptor subtype 5” (Bioorg Med Chem Lett, 2019).
pIC50: −log10 of the molar value.

Experiments:
[1] = target: T1, Metabotropic glutamate receptor 5 (Homo sapiens, UniProt P41594); test: Negative allosteric modulation of human mGlu5 receptor assessed as inhibition of glutamate induced-calcium mobilization; assay type: functional
Target sequence in this assay (P41594 whole entry): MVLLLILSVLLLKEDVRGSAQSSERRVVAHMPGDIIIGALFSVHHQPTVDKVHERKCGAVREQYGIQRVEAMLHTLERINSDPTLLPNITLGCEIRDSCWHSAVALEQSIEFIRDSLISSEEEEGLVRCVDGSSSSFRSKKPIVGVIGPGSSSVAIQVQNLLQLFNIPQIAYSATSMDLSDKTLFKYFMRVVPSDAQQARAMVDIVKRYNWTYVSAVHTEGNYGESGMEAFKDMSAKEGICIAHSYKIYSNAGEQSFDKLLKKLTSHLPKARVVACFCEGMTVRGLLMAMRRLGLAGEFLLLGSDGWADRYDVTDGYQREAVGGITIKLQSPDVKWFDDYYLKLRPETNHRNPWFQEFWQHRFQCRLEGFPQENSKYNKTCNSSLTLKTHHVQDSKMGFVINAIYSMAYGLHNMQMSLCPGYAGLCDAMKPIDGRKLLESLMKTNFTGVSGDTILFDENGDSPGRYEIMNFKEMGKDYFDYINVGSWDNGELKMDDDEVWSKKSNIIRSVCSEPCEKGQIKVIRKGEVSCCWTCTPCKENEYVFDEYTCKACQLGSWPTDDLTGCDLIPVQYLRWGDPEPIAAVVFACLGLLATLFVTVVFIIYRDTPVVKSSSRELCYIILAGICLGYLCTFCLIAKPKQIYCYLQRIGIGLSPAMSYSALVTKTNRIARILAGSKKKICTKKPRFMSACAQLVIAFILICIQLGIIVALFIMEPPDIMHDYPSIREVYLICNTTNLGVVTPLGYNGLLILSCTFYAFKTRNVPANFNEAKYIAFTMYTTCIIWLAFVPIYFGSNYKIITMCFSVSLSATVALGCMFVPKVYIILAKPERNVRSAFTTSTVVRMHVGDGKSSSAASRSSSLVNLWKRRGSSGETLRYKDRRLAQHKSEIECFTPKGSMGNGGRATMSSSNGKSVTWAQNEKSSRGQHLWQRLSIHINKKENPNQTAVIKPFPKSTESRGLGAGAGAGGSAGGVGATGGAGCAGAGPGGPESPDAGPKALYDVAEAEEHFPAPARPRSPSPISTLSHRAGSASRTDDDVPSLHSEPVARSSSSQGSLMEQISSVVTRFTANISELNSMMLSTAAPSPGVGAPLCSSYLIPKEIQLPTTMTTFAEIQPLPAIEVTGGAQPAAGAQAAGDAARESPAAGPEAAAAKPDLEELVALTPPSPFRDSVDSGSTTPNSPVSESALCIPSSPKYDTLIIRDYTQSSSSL

[2] = target: T1, Metabotropic glutamate receptor 5; test: Negative allosteric modulation of human mGlu5 receptor assessed as inhibition of glutamate induced-calcium mobilization relative to glutamate; assay type: functional
Target sequence in this assay (P41594 21-1212 limits assumed): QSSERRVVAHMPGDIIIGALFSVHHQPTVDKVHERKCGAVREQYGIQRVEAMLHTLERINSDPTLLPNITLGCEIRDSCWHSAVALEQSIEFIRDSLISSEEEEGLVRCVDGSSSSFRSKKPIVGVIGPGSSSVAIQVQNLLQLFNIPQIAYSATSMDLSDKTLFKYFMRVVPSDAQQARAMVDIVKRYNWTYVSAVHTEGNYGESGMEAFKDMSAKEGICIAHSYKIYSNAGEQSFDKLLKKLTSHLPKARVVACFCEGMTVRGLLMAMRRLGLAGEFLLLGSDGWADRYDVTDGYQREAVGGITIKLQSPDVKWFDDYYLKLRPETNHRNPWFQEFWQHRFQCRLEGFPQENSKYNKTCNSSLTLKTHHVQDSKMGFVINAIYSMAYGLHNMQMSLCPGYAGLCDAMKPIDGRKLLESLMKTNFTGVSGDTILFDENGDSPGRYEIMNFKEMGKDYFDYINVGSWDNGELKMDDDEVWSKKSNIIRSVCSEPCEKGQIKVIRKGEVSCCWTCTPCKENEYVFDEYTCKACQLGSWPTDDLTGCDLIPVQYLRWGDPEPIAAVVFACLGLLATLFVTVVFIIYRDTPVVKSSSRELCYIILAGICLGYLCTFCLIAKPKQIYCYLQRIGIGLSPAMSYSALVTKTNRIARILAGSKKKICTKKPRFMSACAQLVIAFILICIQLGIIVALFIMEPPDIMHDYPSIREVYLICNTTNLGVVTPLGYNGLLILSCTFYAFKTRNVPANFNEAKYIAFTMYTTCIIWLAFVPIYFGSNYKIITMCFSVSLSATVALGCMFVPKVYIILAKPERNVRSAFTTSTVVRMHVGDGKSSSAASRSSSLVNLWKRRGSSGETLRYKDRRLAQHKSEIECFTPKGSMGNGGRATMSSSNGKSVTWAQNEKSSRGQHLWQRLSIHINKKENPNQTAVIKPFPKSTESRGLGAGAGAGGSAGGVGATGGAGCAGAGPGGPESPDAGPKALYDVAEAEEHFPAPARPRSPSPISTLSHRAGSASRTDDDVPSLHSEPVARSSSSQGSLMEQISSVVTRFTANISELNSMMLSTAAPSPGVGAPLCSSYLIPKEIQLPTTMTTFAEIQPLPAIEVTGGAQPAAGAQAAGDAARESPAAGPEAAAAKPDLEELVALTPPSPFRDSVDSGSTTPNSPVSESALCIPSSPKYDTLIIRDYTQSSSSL

[3] = Unbound fraction in rat plasma; assay type: ADME, cell-free
[4] = Unbound fraction in human plasma; assay type: ADME, cell-free
Cytochrome P450 2D6 = Cytochrome P450 2D6 (Homo sapiens, UniProt P10635); test: Inhibition of CYP2D6 (unknown origin); assay type: ADME
Cytochrome P450 2D6, sequence (P10635 whole entry): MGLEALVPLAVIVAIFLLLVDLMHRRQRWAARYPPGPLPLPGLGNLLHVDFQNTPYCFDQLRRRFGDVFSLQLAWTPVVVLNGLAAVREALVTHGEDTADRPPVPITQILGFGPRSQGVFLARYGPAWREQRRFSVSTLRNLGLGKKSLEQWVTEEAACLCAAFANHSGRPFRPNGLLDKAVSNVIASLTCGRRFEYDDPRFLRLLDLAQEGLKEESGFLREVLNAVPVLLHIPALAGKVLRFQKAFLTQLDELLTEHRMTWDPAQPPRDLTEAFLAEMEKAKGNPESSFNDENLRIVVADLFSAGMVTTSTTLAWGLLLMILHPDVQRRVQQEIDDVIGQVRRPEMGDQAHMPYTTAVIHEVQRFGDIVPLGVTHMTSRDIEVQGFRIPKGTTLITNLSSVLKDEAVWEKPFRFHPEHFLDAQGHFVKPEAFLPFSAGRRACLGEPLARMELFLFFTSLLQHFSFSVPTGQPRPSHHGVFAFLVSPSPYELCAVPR

[5] = Plasma clearance in rat at 0.2 mg/kg, iv; assay type: ADME, organism-based
[6] = Drug metabolism in dog S9 fraction assessed as NADPH-dependent oxidation of furanyl moiety; assay type: ADME, subcellular, Canis lupus familiaris
[7] = Drug metabolism in rat S9 fraction assessed as NADPH-dependent oxidation of furanyl moiety; assay type: ADME, subcellular
[8] = Half life in rat at 0.2 mg/kg, iv; assay type: ADME, organism-based; conditions: in vivo
[9] = Volume of distribution at steady state in rat at 0.2 mg/kg, iv; assay type: ADME, organism-based; conditions: in vivo, read-out: Vdss
[10] = Drug metabolism in human S9 fraction assessed as NADPH-dependent oxidation of furanyl moiety; assay type: ADME, subcellular
Cytochrome P450 1A2 = target: T2, Cytochrome P450 1A2 (Homo sapiens, UniProt P05177); test: Inhibition of CYP1A2 (unknown origin); assay type: ADME
T2 sequence (P05177 whole entry): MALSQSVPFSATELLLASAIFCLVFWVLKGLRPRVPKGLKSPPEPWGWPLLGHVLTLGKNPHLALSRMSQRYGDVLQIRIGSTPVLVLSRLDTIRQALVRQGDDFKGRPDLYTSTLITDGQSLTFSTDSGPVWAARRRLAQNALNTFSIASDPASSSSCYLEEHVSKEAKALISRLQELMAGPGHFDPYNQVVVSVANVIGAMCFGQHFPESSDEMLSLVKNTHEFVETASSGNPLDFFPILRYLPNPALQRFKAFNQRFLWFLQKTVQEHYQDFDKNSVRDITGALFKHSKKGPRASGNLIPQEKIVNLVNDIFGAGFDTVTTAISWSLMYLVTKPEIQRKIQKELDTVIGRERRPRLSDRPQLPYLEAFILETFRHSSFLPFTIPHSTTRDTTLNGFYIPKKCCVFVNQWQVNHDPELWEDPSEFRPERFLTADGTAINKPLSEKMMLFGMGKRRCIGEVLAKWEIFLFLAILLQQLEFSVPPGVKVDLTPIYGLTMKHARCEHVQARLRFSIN

Cytochrome P450 3A4 = Cytochrome P450 3A4 (Homo sapiens, UniProt P08684); test: Inhibition of CYP3A4 (unknown origin); assay type: ADME
Cytochrome P450 3A4, sequence (P08684 whole entry): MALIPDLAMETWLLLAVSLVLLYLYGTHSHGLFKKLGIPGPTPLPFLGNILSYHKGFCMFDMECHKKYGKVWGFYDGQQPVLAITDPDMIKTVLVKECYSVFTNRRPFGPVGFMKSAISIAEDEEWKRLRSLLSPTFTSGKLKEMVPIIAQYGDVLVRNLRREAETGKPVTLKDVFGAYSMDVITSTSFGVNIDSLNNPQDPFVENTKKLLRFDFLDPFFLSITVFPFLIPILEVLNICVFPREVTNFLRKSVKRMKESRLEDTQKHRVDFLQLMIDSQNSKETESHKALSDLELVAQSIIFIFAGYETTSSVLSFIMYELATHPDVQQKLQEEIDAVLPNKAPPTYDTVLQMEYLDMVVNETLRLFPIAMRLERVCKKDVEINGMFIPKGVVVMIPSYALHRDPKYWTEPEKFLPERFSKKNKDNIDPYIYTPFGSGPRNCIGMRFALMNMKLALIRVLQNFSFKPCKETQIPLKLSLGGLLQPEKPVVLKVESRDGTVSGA

Cytochrome P450 2C9 = Cytochrome P450 2C9 (Homo sapiens, UniProt P11712); test: Inhibition of CYP2C9 (unknown origin); assay type: ADME
Cytochrome P450 2C9, sequence (P11712 whole entry): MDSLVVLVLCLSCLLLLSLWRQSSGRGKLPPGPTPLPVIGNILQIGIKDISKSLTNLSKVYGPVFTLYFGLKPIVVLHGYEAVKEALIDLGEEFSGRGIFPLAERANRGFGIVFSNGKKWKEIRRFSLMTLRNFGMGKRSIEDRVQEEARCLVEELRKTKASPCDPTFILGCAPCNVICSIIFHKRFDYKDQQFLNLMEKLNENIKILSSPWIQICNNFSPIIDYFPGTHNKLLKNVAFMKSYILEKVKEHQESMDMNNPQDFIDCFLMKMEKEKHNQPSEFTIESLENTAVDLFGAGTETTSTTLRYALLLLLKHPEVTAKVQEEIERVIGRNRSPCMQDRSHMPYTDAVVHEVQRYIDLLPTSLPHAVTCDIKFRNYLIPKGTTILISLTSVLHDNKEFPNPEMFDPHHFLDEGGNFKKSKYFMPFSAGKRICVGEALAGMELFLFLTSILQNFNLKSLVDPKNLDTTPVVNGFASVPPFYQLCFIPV

[11] = Brain to plasma partition coefficient, Kp in rat; assay type: ADME, organism-based

pIC50 [1]	Efficacy [2] [%]	Structure (SMILES)	also measured
6.41		Cc1cc(OC2CS(=O)(=O)C2)cc(C(=O)Nc2nc(C)cs2)n1	
7.64	1.7	Cc1cc(O[C@@H]2CCOC2)cc(C(=O)Nc2ccccn2)n1	
6.70	1.1	Cc1cc(OCC2CCOC2)cc(C(=O)Nc2nc(C)cs2)n1 (stereo unspecified)	
6.16	1.1	Cc1cc(O[C@H]2CO[C@@H](C)C2)cc(C(=O)Nc2nc(C)cs2)n1	
6.19	0.5	Cc1cc(OCC2CCO2)cc(C(=O)Nc2ccccn2)n1 (stereo unspecified)	
5.35	1.9	Cc1cc(O[C@H]2CO[C@@H](C)C2)cc(C(=O)Nc2ccc(F)cn2)n1	
6.83	1.5	Cc1cc(OC2CCCC2)cc(C(=O)Nc2nc(C)cs2)n1	
5.68	1.9	Cc1cc(OC2CCCCC2)cc(C(=O)Nc2nc(C)cs2)n1	
6.84		CO[C@H](C)COc1cc(C)nc(C(=O)Nc2nc(C)cs2)c1	Fu [3]: 0.09; Fu [4]: 0.07
6.85	0.9	Cc1cc(OC2CCCOC2)cc(C(=O)Nc2nc(C)cs2)n1 (stereo unspecified)	
6.16	0.1	COCOc1cc(C)nc(C(=O)Nc2ccc(F)cn2)c1	
6.18	1	Cc1cc(O[C@H]2CCOC2)cc(C(=O)Nc2ccc(F)cn2)n1	
5.14	5.5	COc1cc(C)nc(C(=O)Nc2ccc(F)cn2)c1	
6.40	1.7	Cc1cc(O[C@@H]2CO[C@@H](C)C2)cc(C(=O)Nc2nc(C)cs2)n1	
5.37	-3.4	Cc1cc(OCC2COC2)cc(C(=O)Nc2ccc(F)cn2)n1	
5.85	2.1	Cc1cc(OC2CCCCC2)cc(C(=O)Nc2ccccn2)n1	
7.55	1.3	Cc1cc(O[C@@H]2CCOC2)cc(C(=O)Nc2nc(C)cs2)n1	INH (Cytochrome P450 2D6): > 30 µM; fraction unbound [3]: 0.11; clearance [5]: 34 mL/min/kg; Drug metabolism [6]: Metabolite_Detected; Drug metabolism [7]: Metabolite_Detected; half-life [8]: 63 min; Fu [4]: 0.08; Vd [9]: 2.7 L/kg; Drug metabolism [10]: Metabolite_Detected; INH (Cytochrome P450 1A2): 0.3 µM; INH (Cytochrome P450 3A4): 30 µM; INH (Cytochrome P450 2C9): > 30 µM
6.71	1.3	Cc1cc(O[C@H]2CCOC2)cc(C(=O)Nc2ccccn2)n1	
6.15	1	Cc1cc(OCC2CCOC2)cc(C(=O)Nc2ccc(F)cn2)n1 (stereo unspecified)	
6.65	0.7	Cc1cc(OC2CCCOC2)cc(C(=O)Nc2ccccn2)n1 (stereo unspecified)	
6.41	0.8	Cc1cc(OCC2COC2)cc(C(=O)Nc2ccccn2)n1	

pIC50 [1]	Efficacy [2] [%]	Structure (SMILES)	also measured
6.87	1.5	Cc1cc(OCC2COC2)cc(C(=O)Nc2nc(C)cs2)n1	
5.44	-0.7	Cc1cc(OC2CCCC2)cc(C(=O)Nc2ccc(F)cn2)n1	
5.47	10.4	Cc1cc(OC2CCCCC2)cc(C(=O)Nc2ccc(F)cn2)n1	
5.98		CO[C@@H](C)COc1cc(C)nc(C(=O)Nc2nc(C)cs2)c1	
5.81	0.9	Cc1cc(OC2CCOCC2)cc(C(=O)Nc2ccccn2)n1	
7.24	1.5	Cc1cc(OC2CCC2)cc(C(=O)Nc2nc(C)cs2)n1	
6.92	1.1	COCOc1cc(C)nc(C(=O)Nc2ccccn2)c1	
6.30	0.2	Cc1cc(OC2CCCOC2)cc(C(=O)Nc2ccc(F)cn2)n1 (stereo unspecified)	
5.63	-0.9	Cc1cc(OCC2CCCO2)cc(C(=O)Nc2ccc(F)cn2)n1 (stereo unspecified)	
6.14	0.8	Cc1cc(OCC2CCCO2)cc(C(=O)Nc2ccccn2)n1 (stereo unspecified)	
5.89	3.8	Cc1cc(O[C@H]2CO[C@H](C)C2)cc(C(=O)Nc2nc(C)c(F)s2)n1	
6.74	1.1	Cc1cc(O[C@H]2CO[C@H](C)C2)cc(C(=O)Nc2nc(CF)cs2)n1	
5.61	-1.1	Cc1cc(OCC2CCO2)cc(C(=O)Nc2ccc(F)cn2)n1 (stereo unspecified)	
6.56	1.5	Cc1cc(OCC2CCCO2)cc(C(=O)Nc2nc(C)cs2)n1 (stereo unspecified)	
7.09	1.2	Cc1cc(O[C@H]2CO[C@H](C)C2)cc(C(=O)Nc2nc(C)cs2)n1	Kp [11]: 2.2; fraction unbound [3]: 0.1; fraction unbound [4]: 0.05
7.37	1.5	Cc1cc(OC2CCC2)cc(C(=O)Nc2ccccn2)n1	
6.03		COC[C@H](C)Oc1cc(C)nc(C(=O)Nc2nc(C)cs2)c1	
5.69	2.6	Cc1cc(O[C@@H]2CO[C@@H](C)C2)cc(C(=O)Nc2ccc(F)cn2)n1	
6.97	1.4	Cc1cc(O[C@H]2CCOC2)cc(C(=O)Nc2nc(C)cs2)n1	
6.74	1.6	Cc1cc(OC2CCC2)cc(C(=O)Nc2ccc(F)cn2)n1	
7.29	0.5	Cc1cc(OC2COC2)cc(C(=O)Nc2nc(C)cs2)n1	

pIC50 [1]	Efficacy [2] [%]	Structure (SMILES)	also measured
6.40	1.2	Cc1cc(OCC2CCO2)cc(C(=O)Nc2nc(C)cs2)n1 (stereo unspecified)	
6.76	1.3	Cc1cc(O[C@H]2CO[C@H](C)C2)cc(C(=O)Nc2ccc(F)cn2)n1	
7.51		Cc1cc(OC2CSC2)cc(C(=O)Nc2nc(C)cs2)n1	
6.84		Cc1cc(OC2C[S+]([O-])C2)cc(C(=O)Nc2nc(C)cs2)n1 (stereo unspecified)	
7.42	1.7	Cc1cc(O[C@@H]2CCOC2)cc(C(=O)Nc2ccc(F)cn2)n1	INH (Cytochrome P450 2D6): > 30 µM; Fu [3]: 0.26; clearance [5]: 136 mL/min/kg; half-life [8]: 46 min; Fu [4]: 0.07; Vd [9]: 5.5 L/kg; INH (Cytochrome P450 1A2): > 30 µM; INH (Cytochrome P450 3A4): > 30 µM; INH (Cytochrome P450 2C9): > 30 µM
5.99		COC[C@@H](C)Oc1cc(C)nc(C(=O)Nc2nc(C)cs2)c1	
6.99	1.9	COCOc1cc(C)nc(C(=O)Nc2nc(C)cs2)c1	
6.95	2.1	Cc1cc(O[C@@H]2CO[C@H](C)C2)cc(C(=O)Nc2nc(C)cs2)n1	
6.68	1.1	Cc1cc(OCC2CCOC2)cc(C(=O)Nc2ccccn2)n1 (stereo unspecified)	
6.04	1.6	Cc1cc(O[C@H]2CO[C@H](C)C2)cc(C(=O)Nc2nc(C(F)F)cs2)n1	
6.05	1.3	Cc1cc(O[C@H]2CO[C@H](C)C2)cc(C(=O)Nc2nc(C3CC3)cs2)n1	
6.74	2.1	Cc1cc(OC2CCCC2)cc(C(=O)Nc2ccccn2)n1	
6.30		Cc1cc(OC2CN(S(C)(=O)=O)C2)cc(C(=O)Nc2nc(C)cs2)n1	
6.41	1.4	Cc1cc(O[C@@H]2CO[C@H](C)C2)cc(C(=O)Nc2ccc(F)cn2)n1	
7.11		Cc1cc(OC2CCSC2)cc(C(=O)Nc2nc(C)cs2)n1 (stereo unspecified)	
6.35	0.7	Cc1cc(OC2CCOCC2)cc(C(=O)Nc2nc(C)cs2)n1	
5.28	2.7	Cc1cc(O[C@H]2CO[C@H](C)C2)cc(C(=O)Nc2nc(C(F)(F)F)cs2)n1	
6.41		CC(=O)N1CC(Oc2cc(C)nc(C(=O)Nc3nc(C)cs3)c2)C1	
7.18	1.3	Cc1cc(OC2COC2)cc(C(=O)Nc2ccccn2)n1	
6.64	1.1	Cc1cc(OC2COC2)cc(C(=O)Nc2ccc(F)cn2)n1	INH (Cytochrome P450 2D6): > 30 µM; Fu [3]: 0.16; clearance [5]: 179 mL/min/kg; half-life [8]: 28 min; Fu [4]: 0.16; Vd [9]: 4.5 L/kg; INH (Cytochrome P450 1A2): 5.8 µM; INH (Cytochrome P450 3A4): > 30 µM; INH (Cytochrome P450 2C9): > 30 µM
5.71	-0.2	Cc1cc(OC2CCOCC2)cc(C(=O)Nc2ccc(F)cn2)n1	
